Measurements published in US10988478B1, “Pyrazolo[1,5a]pyrimidine derivatives as IRAK4 modulators” (Genentech, Inc., priority 2015, dated 2021).

Each compound was assayed against human IRAK4 (Homo sapiens (Human), UniProt Q9NWZ3) (assay: IRAK4 kinase inhibition, Transcreener fluorescence polarization ADP assay). Conditions: recombinant full-length His6-IRAK4; 125 uM ATP; 90 min; Ki computed using ATP Km 642 uM.
Assay type: biochemical
Protocol: Compounds were assayed for inhibition of human IRAK4 and IRAK1 catalytic activity using recombinant enzyme produced from insect cells. Full-length IRAK4 protein, carrying an N-terminal His6-Tag, was obtained from Life Technologies (Carlsbad, Calif., USA). The IRAK1 construct was produced internally and was comprised of IRAK1 residues Arg194 to Ser712, preceded by an NH2-terminal His6 tag and the coding sequence for glutathione-S-transferase.

Sequence of human IRAK4 (Q9NWZ3 whole entry): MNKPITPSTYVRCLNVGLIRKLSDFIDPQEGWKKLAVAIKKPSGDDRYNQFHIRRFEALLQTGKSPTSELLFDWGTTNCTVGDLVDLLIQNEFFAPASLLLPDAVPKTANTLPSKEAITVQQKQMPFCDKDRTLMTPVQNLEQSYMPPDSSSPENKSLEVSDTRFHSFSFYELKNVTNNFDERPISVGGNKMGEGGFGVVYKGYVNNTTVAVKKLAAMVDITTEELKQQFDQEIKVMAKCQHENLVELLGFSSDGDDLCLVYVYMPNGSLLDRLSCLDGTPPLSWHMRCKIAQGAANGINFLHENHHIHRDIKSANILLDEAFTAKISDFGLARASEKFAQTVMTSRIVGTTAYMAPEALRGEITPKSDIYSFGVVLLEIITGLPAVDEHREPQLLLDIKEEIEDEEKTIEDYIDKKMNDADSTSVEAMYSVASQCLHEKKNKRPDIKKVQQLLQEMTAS

Ki | SMILES
0.36 µM | C[C@@]1(CO)Cc2cc(NC(=O)c3cnn4cccnc34)c(C(F)F)cc2O1 [Example 73, N-[(2S)-6-(Difluoromethyl)-2-(hydroxymethyl)-2-methyl-3H-benzofuran-5-yl]pyrazolo[1,5-a]pyrimidine-3-carboxamide]
0.75 µM | C[C@]1(CO)Cc2cc(NC(=O)c3cnn4cccnc34)c(C(F)F)cc2O1 [Example 74, N-[(2R)-6-(difluoromethyl)-2-(hydroxymethyl)-2-methyl-3H-benzofuran-5-yl]pyrazolo[1,5-a]pyrimidine-3-carboxamide]
0.065 µM | CC1(CO)Cc2cc(NC(=O)c3cnn4cc(C(F)F)cnc34)c(N3CCOCC3)cc2O1 (stereo not shown) [Example 75, 6-(Difluoromethyl)-N-[2-(hydroxymethyl)-2-methyl-6-morpholino-3H-benzofuran-5-yl]pyrazolo[1,5-a]pyrimidine-3-carboxamide]
0.025 µM | C[C@]1(C(F)(F)F)Cc2cc(NC(=O)c3cnn4cccnc34)c(N3CCOCC3)cc2O1 [Example 76, (R)—N-(2-Methyl-6-morpholino-2-(trifluoromethyl)-2,3-dihydrobenzofuran-5-yl)pyrazolo[1,5-a]pyrimidine-3-carboxamide]
0.19 µM | CC1(C)COc2cc(N3CCOCC3)c(NC(=O)c3cnn4cccnc34)cc2N1 [Example 82, N-(3,3-Dimethyl-7-morpholino-3,4-dihydro-2H-benzo[b][1,4]oxazin-6-yl)pyrazolo[1,5-a]pyrimidine-3-carboxamide]
0.024 µM | Cc1c2c(cc(NC(=O)c3cnn4cccnc34)c1N1CCOCC1)C[C@@](C)(CO)O2 [Example 84, (S)—N-(2-(hydroxymethyl)-2,7-dimethyl-6-morpholino-2,3-dihydrobenzofuran-5-yl)pyrazolo[1,5-a]pyrimidine-3-carboxamide]

The remaining lines, values behind:

SMILES | Ki
C[C@@]1(C(F)(F)F)Cc2cc(NC(=O)c3cnn4cccnc34)c(N3CCOCC3)cc2O1 [Example 77, (S)—N-(2-methyl-6-morpholino-2-(trifluoromethyl)-2,3-dihydrobenzofuran-5-yl)pyrazolo[1,5-a]pyrimidine-3-carboxamide] | 0.013 µM
C[C@]1(CO)Cc2cc(NC(=O)c3cnn4cccnc34)c(N3CCOCC3)c(Cl)c2O1 [Example 80, (R)—N-(7-Chloro-2-(hydroxymethyl)-2-methyl-6-morpholino-2,3-dihydrobenzofuran-5-yl)pyrazolo[1,5-a]pyrimidine-3-carboxamide] | 0.034 µM
C[C@@]1(CO)Cc2cc(NC(=O)c3cnn4cccnc34)c(N3CCOCC3)c(Cl)c2O1 [Example 81, (S)—N-(7-chloro-2-(hydroxymethyl)-2-methyl-6-morpholino-2,3-dihydrobenzofuran-5-yl)pyrazolo[1,5-a]pyrimidine-3-carboxamide] | 0.1 µM
Cc1c2c(cc(NC(=O)c3cnn4cccnc34)c1N1CCOCC1)C[C@](C)(CO)O2 [Example 83, (R)—N-(2-(Hydroxymethyl)-2,7-dimethyl-6-morpholino-2,3-dihydrobenzofuran-5-yl)pyrazolo[1,5-a]pyrimidine-3-carboxamide] | 0.062 µM
CC(=O)c1cnc2c(C(=O)Nc3cc4c(cc3N3CCOCC3)O[C@@](C)(CO)C4)cnn2c1 [Example 85, (R)-6-Acetyl-N-(2-(hydroxymethyl)-2-methyl-6-morpholino-2,3-dihydrobenzofuran-5-yl)pyrazolo[1,5-a]pyrimidine-3-carboxamide] | 0.017 µM
CC(=O)c1cnc2c(C(=O)Nc3cc4c(cc3N3CCOCC3)O[C@](C)(CO)C4)cnn2c1 [Example 86, (S)-6-Acetyl-N-(2-(hydroxymethyl)-2-methyl-6-morpholino-2,3-dihydrobenzofuran-5-yl)pyrazolo[1,5-a]pyrimidine-3-carboxamide] | 0.049 µM
C[C@]1(CO)Cc2cc(NC(=O)c3cnn4cccnc34)c(N3CCN(CCO)CC3)cc2O1 [Example 87, N-[(2R)-6-[4-(2-Hydroxyethyl)piperazin-1-yl]-2-(hydroxymethyl)-2-methyl-3H-benzofuran-5-yl]pyrazolo[1,5-a]pyrimidine-3-carboxamide] | 0.019 µM
